Test results: PubChem BioAssay (NCI)
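Cells were grown in 96-well plates and exposed to each compound for 48 hours at five concentrations; endpoints were interpolated linearly between bracketing concentrations, or set to the highest concentration if not reached. TGI marks complete inhibition of growth.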

Legend:
Experiment in all cases: NCI-60 cell line screen, 48 h
786-0 renal = tested on: 786-0 renal
A498 renal = tested on: A498 renal
A549 NSCLC = tested on: A549 NSCLC
CAKI-1 renal = tested on: CAKI-1 renal
CCRF-CEM leukemia = tested on: CCRF-CEM leukemia
COLO 205 colon = tested on: COLO 205 colon
DLD-1 colon = tested on: DLD-1 colon
DMS 114 small cell lung = tested on: DMS 114 small cell lung
DMS 273 small cell lung = tested on: DMS 273 small cell lung
EKVX NSCLC = tested on: EKVX NSCLC
HCC-2998 colon = tested on: HCC-2998 colon
HCT-116 colon = tested on: HCT-116 colon
HL-60(TB) leukemia = tested on: HL-60(TB) leukemia
HOP-18 NSCLC = tested on: HOP-18 NSCLC
HOP-62 NSCLC = tested on: HOP-62 NSCLC
HT29 colon = tested on: HT29 colon
IGROV1 ovarian = tested on: IGROV1 ovarian
K-562 leukemia = tested on: K-562 leukemia
KM12 colon = tested on: KM12 colon
KM20L2 colon = tested on: KM20L2 colon
LOX IMVI melanoma = tested on: LOX IMVI melanoma
LXFL 529 NSCLC = tested on: LXFL 529 NSCLC
M14 melanoma = tested on: M14 melanoma
M19-MEL melanoma = tested on: M19-MEL melanoma
MALME-3M melanoma = tested on: MALME-3M melanoma
NCI-H226 lung = tested on: NCI-H226 lung
NCI-H23 lung = tested on: NCI-H23 lung
NCI-H460 lung = tested on: NCI-H460 lung
NCI-H522 lung = tested on: NCI-H522 lung
OVCAR-3 ovarian = tested on: OVCAR-3 ovarian
OVCAR-4 ovarian = tested on: OVCAR-4 ovarian
OVCAR-5 ovarian = tested on: OVCAR-5 ovarian
OVCAR-8 ovarian = tested on: OVCAR-8 ovarian
RPMI-8226 leukemia = tested on: RPMI-8226 leukemia
RXF 393 renal = tested on: RXF 393 renal
SF-268 CNS = tested on: SF-268 CNS
SF-295 CNS = tested on: SF-295 CNS
SF-539 CNS = tested on: SF-539 CNS
SK-MEL-2 melanoma = tested on: SK-MEL-2 melanoma
SK-MEL-28 melanoma = tested on: SK-MEL-28 melanoma
SK-MEL-5 melanoma = tested on: SK-MEL-5 melanoma
SK-OV-3 ovarian = tested on: SK-OV-3 ovarian
SN12C renal = tested on: SN12C renal
SNB-19 CNS = tested on: SNB-19 CNS
SNB-75 CNS = tested on: SNB-75 CNS
SNB-78 CNS = tested on: SNB-78 CNS
SW-620 colon = tested on: SW-620 colon
TK-10 renal = tested on: TK-10 renal
U251 CNS = tested on: U251 CNS
UACC-257 melanoma = tested on: UACC-257 melanoma
UACC-62 melanoma = tested on: UACC-62 melanoma
UO-31 renal = tested on: UO-31 renal
ACHN renal = tested on: ACHN renal
HOP-92 NSCLC = tested on: HOP-92 NSCLC
MOLT-4 leukemia = tested on: MOLT-4 leukemia
SR leukemia = tested on: SR leukemia

Measured: TGI

O=C1C[C@@H]2[C@@H](CCC23CC3)N1
> 100 µM: 786-0 renal | A498 renal | A549 NSCLC | CAKI-1 renal | CCRF-CEM leukemia | COLO 205 colon | DLD-1 colon | DMS 114 small cell lung | DMS 273 small cell lung | EKVX NSCLC | HCC-2998 colon | HCT-116 colon | HL-60(TB) leukemia | HOP-18 NSCLC | HOP-62 NSCLC | HT29 colon | IGROV1 ovarian | K-562 leukemia | KM12 colon | KM20L2 colon | LOX IMVI melanoma | LXFL 529 NSCLC | M14 melanoma | M19-MEL melanoma | MALME-3M melanoma | NCI-H226 lung | NCI-H23 lung | NCI-H460 lung | NCI-H522 lung | OVCAR-3 ovarian | OVCAR-4 ovarian | OVCAR-5 ovarian | OVCAR-8 ovarian | RPMI-8226 leukemia | RXF 393 renal | SF-268 CNS | SF-295 CNS | SF-539 CNS | SK-MEL-2 melanoma | SK-MEL-28 melanoma | SK-MEL-5 melanoma | SK-OV-3 ovarian | SN12C renal | SNB-19 CNS | SNB-75 CNS | SNB-78 CNS | SW-620 colon | TK-10 renal | U251 CNS | UACC-257 melanoma | UACC-62 melanoma | UO-31 renal

COc1ccc2c(c1)CC[C@@H]1C2CC[C@](C)(C#N)C1CC#N (stereo partly specified)
> 100 µM: 786-0 renal | A498 renal | ACHN renal | CCRF-CEM leukemia | COLO 205 colon | DMS 114 small cell lung | HCT-116 colon | HOP-62 NSCLC | HOP-92 NSCLC | HT29 colon | IGROV1 ovarian | K-562 leukemia | KM12 colon | KM20L2 colon | LXFL 529 NSCLC | M14 melanoma | M19-MEL melanoma | MALME-3M melanoma | MOLT-4 leukemia | NCI-H23 lung | NCI-H460 lung | NCI-H522 lung | OVCAR-3 ovarian | OVCAR-4 ovarian | OVCAR-5 ovarian | RPMI-8226 leukemia | RXF 393 renal | SF-268 CNS | SF-295 CNS | SK-MEL-28 melanoma | SK-OV-3 ovarian | SNB-19 CNS | SNB-75 CNS | SNB-78 CNS | SR leukemia | U251 CNS | UACC-257 melanoma | UACC-62 melanoma | UO-31 renal
